The text below walks through data of patent US20240368135A1 (VERTEX PHARMACEUTICALS INCORPORATED, priority 2021, published 2024).

Where only a bound is given, the exact number is not on record here.

One assay deals with human NaV 1.8 (Homo sapiens, UniProt Q9Y5Y9). Briefly: E-VIPR assay detecting and measuring NaV inhibition properties. It is filed as cell-based. As to conditions: HEK cells expressing truncated human NaV 1.8; in the presence of human serum (compound numbers followed by *); read-out: IC50 in the E-VIPR Assay, performed in the presence of human serum. Put shortly: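 Membrane potential was followed by coumarin/oxonol FRET during electrical field stimulation of matrigel-seeded HEK cells carrying truncated human NaV1.8 plus KIR2.1. Dosing used 11 points, 3-fold steps, top 300 nM final, 0.625% DMSO, with or without 25% human serum.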
Chain of human NaV 1.8 (Q9Y5Y9 126-399 limits assumed): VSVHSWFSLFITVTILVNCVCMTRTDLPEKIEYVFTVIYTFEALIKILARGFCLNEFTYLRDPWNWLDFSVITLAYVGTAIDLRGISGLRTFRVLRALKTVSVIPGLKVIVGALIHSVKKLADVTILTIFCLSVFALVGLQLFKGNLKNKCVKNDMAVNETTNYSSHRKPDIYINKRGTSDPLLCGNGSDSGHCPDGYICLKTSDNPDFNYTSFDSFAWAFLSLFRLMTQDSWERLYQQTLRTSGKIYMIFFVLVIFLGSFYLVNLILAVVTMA
Chain of human NaV 1.8 (Q9Y5Y9 660-890 limits assumed): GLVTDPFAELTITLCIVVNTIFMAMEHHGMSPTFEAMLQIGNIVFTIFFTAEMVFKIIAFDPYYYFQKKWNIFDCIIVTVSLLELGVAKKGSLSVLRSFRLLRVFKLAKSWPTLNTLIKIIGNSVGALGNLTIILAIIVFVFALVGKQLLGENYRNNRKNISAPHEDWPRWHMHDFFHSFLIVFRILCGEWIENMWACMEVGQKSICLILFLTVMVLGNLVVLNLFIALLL
Chain of human NaV 1.8 (Q9Y5Y9 1148-1722 limits assumed): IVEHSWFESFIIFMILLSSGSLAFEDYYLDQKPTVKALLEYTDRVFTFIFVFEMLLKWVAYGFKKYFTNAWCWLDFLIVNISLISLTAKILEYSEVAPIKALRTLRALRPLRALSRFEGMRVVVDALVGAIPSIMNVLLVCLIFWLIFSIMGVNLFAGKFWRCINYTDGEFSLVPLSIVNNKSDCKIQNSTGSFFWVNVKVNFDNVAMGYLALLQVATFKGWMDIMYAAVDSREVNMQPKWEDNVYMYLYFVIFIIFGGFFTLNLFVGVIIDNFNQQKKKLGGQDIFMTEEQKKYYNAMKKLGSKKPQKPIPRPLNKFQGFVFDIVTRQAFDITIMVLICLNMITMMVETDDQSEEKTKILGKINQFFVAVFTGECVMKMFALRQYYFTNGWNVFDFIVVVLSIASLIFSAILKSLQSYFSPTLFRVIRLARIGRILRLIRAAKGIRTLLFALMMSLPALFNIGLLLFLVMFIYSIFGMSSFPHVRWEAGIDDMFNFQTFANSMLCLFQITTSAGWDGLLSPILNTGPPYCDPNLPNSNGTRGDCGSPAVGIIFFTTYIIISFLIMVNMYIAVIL
Turning to `COc1c(C2C(C(=O)Nc3ccnc(S(C)(=O)=O)c3)OC(C)(C(F)(F)F)C2C)ccc(F)c1F` (single isomer, unassigned) [Compound 49, 3-(3,4-difluoro-2-methoxy-phenyl)-4,5-dimethyl-N-(2-methylsulfonyl-4-pyridyl)-5-(trifluoromethyl)tetrahydrofuran-2-carboxamide], the IC50 is no less than 1000 nM.

Staying with this assay, now noted: HEK cells expressing truncated human NaV 1.8; no human serum; read-out: IC50 in the E-VIPR Assay.
For the molecule `COc1c([C@H]2[C@H](C(=O)NC3CCCN(C(C)=O)C3)O[C@@](C)(C(F)(F)F)[C@H]2C)ccc(F)c1F` (stereo partly drawn) [Compound 274, (2R,3S,4S,5R)-N-(1-acetylpiperidin-3-yl)-3-(3,4-difluoro-2-methoxyphenyl)-4,5-dimethyl-5-(trifluoromethyl)tetrahydrofuran-2-carboxamide], the IC50 was no less than 1000 nM. Still for that read-out and setting: next, `COc1c([C@H]2[C@H](C(=O)Nc3ccnc(O[C@@H]4COC[C@@H]4O)c3)O[C@@](C)(C(F)(F)F)[C@H]2C)ccc(F)c1F` (single isomer, unassigned) [Compound 239, rel-(2R*,3S*,4S*,5R*)-3-(3,4-difluoro-2-methoxyphenyl)-N-(2-(((3R,4S)-4-hydroxytetrahydrofuran-3-yl)oxy)pyridin-4-yl)-4,5-dimethyl-5-(trifluoromethyl)tetrahydrofuran-2-carboxamide]: less than 10 nM; `COc1c([C@H]2[C@H](C(=O)Nc3ccc(S(N)(=O)=O)nc3)O[C@@](C)(C(F)(F)F)[C@H]2C)ccc(F)c1F` [Compound 235, (2R,3S,4S,5R)-3-(3,4-difluoro-2-methoxy-phenyl)-4,5-dimethyl-N-(6-sulfamoyl-3-pyridyl)-5-(trifluoromethyl)tetrahydrofuran-2-carboxamide]: 10 to 100 nM. On the same count and under the same terms, next, `COc1c(C2C(C(=O)Nc3ccn4nnnc4c3)OC(C)(C(F)(F)F)C2C)ccc(F)c1C` (single isomer, unassigned) [Compound 134, 3-(4-fluoro-2-methoxy-3-methyl-phenyl)-4,5-dimethyl-N-(tetrazolo[1,5-a]pyridin-7-yl)-5-(trifluoromethyl)tetrahydrofuran-2-carboxamide]: less than 10 nM; `C[C@H]1[C@@H](c2ccc(F)c(F)c2OCCN2CC3(COC3)C2)[C@H](C(=O)Nc2cccnc2)O[C@@]1(C)C(F)(F)F` [Compound 636]: 10 to 100 nM; `CCOc1c([C@H]2[C@H](C(=O)Nc3ccnc(S(C)(=N)=O)c3)O[C@@](C)(C(F)(F)F)[C@H]2C)ccc(F)c1F` (single isomer, unassigned) [Compound 111]: less than 10 nM. Same read-out and setting: next, `COc1c([C@H]2[C@H](C(=O)Nc3ccc(C(=O)O)nc3)O[C@@](C)(C(F)(F)F)[C@H]2C)ccc(F)c1C(F)F` (single isomer, unassigned) [Compound 176]: less than 10 nM; `COc1c([C@H]2[C@H](C(=O)Nc3ccc4nc(C(=O)NCCO)cn4c3)O[C@@](C)(C(F)(F)F)[C@H]2C)ccc(F)c1F` [Compound 260, 6-((2R,3S,4S,5R)-3-(3,4-difluoro-2-methoxyphenyl)-4,5-dimethyl-5-(trifluoromethyl)tetrahydrofuran-2-carboxamido)-N-(2-hydroxyethyl)imidazo[1,2-a]pyridine-2-carboxamide]: 10 to 100 nM; `COc1c(C2C(C(=O)Nc3cncnc3)OC(C)(C(F)(F)F)C2C)ccc(F)c1F` (single isomer, unassigned) [Compound 38, 3-(3,4-difluoro-2-methoxy-phenyl)-4,5-dimethyl-N-pyrimidin-5-yl-5-(trifluoromethyl)tetrahydrofuran-2-carboxamide]: less than 10 nM. Turning to `COc1c([C@H]2[C@H](C(=O)Nc3ccnc(N4CCC(N(C)C)C4=O)c3)O[C@@](C)(C(F)(F)F)[C@H]2C)ccc(F)c1F` (single isomer, unassigned) [Compound 507, rel-(2R*,3S*,4S*,5R*)-3-(3,4-difluoro-2-methoxyphenyl)-N-(2-(3-(dimethylamino)-2-oxopyrrolidin-1-yl)pyridin-4-yl)-4,5-dimethyl-5-(trifluoromethyl)tetrahydrofuran-2-carboxamide], the IC50 is 10 to 100 nM. Still for that read-out and setting: next, `COc1c([C@H]2[C@H](C(=O)Nc3ccnc(-n4ccnc4C)c3)O[C@@](C)(C(F)(F)F)[C@H]2C)ccc(F)c1F` [Compound 316, (2R,3S,4S,5R)-3-(3,4-difluoro-2-methoxyphenyl)-4,5-dimethyl-N-(2-(2-methyl-1H-imidazol-1-yl)pyridin-4-yl)-5-(trifluoromethyl)-tetrahydrofuran-2-carboxamide]: less than 10 nM. Same read-out and setting: the figure for `COc1c([C@H]2[C@H](C(=O)Nc3ccnc(S(C)(=N)=O)c3)O[C@@](C)(C(F)(F)F)[C@H]2C)ccc(F)c1C` (relative stereo) [Compound 151, rel-(2R,3S,4S,5R)-3-(4-fluoro-2-methoxy-3-methylphenyl)-4,5-dimethyl-N-(2-(S-methylsulfonimidoyl)pyridin-4-yl)-5-(trifluoromethyl)tetrahydrofuran-2-carboxamide] is less than 10 nM.

Turning to `COc1c([C@H]2[C@H](C(=O)Nc3ccnc(C(CO)N(C)C)c3)O[C@@](C)(C(F)(F)F)[C@H]2C)ccc(F)c1F` (single isomer, unassigned) [Compound 368], the IC50 was less than 10 nM. With `Cc1nn(C(F)F)cc1NC(=O)[C@@H]1O[C@@](C)(C(F)(F)F)[C@@H](C)[C@H]1c1ccc(F)c(F)c1CN(C)C` [Compound 672, (2R,3S,4S,5R)-N-(1-(difluoromethyl)-3-methyl-1H-pyrazol-4-yl)-3-(2-((dimethylamino)methyl)-3,4-difluorophenyl)-4,5-dimethyl-5-(trifluoromethyl)tetrahydrofuran-2-carboxamide], the IC50 lay in the range of 10 to 100 nM. The same measure, in the same setting: next, `Cc1nn(CCO)cc1NC(=O)[C@H]1O[C@](C)(C(F)(F)F)[C@H](C)[C@@H]1c1ccc(F)c(F)c1OC(F)F` (single isomer, unassigned) [Compound 75]: no less than 1000 nM; `COc1c(C2C(C(=O)Nc3ccnc(S(C)(=N)=O)c3)OC(C)(C(F)(F)F)C2C)ccc(F)c1F` (single isomer, unassigned) [Compound 54, 3-(3,4-difluoro-2-methoxy-phenyl)-4,5-dimethyl-N-[2-(methylsulfonimidoyl)-4-pyridyl]-5-(trifluoromethyl)tetrahydrofuran-2-carboxamide]: less than 10 nM; `Cc1ccc(NC(=O)C2OC(C)(C(F)(F)F)C(C)C2c2ccc(F)c(F)c2OC2CC(O)C2)cn1` [Compound 661, (2R,3S,4S,5R)-3-(3,4-difluoro-2-((1S,3R)-3-hydroxycyclobutoxy)phenyl)-4,5-dimethyl-N-(6-methylpyridin-3-yl)-5-(trifluoromethyl)tetrahydrofuran-2-carboxamide]: 10 to 100 nM. Same read-out and setting: the figure for `COc1c([C@H]2[C@H](C(=O)Nc3cc(C(C)(C)O)ncn3)O[C@@](C)(C(F)(F)F)[C@H]2C)ccc(F)c1F` [Compound 389, (2R,3S,4S,5R)-3-(3,4-difluoro-2-methoxy-phenyl)-N-[6-(1-hydroxy-1-methyl-ethyl)pyrimidin-4-yl]-4,5-dimethyl-5-(trifluoromethyl)tetrahydrofuran-2-carboxamide] is 10 to 100 nM; for `COc1c([C@H]2[C@H](C(=O)Nc3ccnc(N4CCN(C)[C@H](C)C4=O)c3)O[C@@](C)(C(F)(F)F)[C@H]2C)ccc(F)c1F` [Compound 475, (2R,3S,4S,5R)-3-(3,4-difluoro-2-methoxyphenyl)-N-(2-((R)-3,4-dimethyl-2-oxopiperazin-1-yl)pyridin-4-yl)-4,5-dimethyl-5-(trifluoromethyl)tetrahydrofuran-2-carboxamide] it is 10 to 100 nM; for `Cc1cc(NC(=O)[C@@H]2O[C@@](C)(C(F)(F)F)[C@@H](C)[C@H]2c2ccc(F)c(F)c2OCCO)ccn1` [Compound 560, (2R,3S,4S,5R)-3-(3,4-difluoro-2-(2-hydroxyethoxy)phenyl)-4,5-dimethyl-N-(2-methylpyridin-4-yl)-5-(trifluoromethyl)tetrahydrofuran-2-carboxamide] it is 10 to 100 nM. On the same count and under the same terms, the figure for `COc1c([C@H]2[C@H](C(=O)Nc3ccnc(O[C@H]4COC[C@H]4O)c3)O[C@@](C)(C(F)(F)F)[C@H]2C)ccc(F)c1F` (single isomer, unassigned) [Compound 240, rel-(2R*,3S*,4S*,5R*)-3-(3,4-difluoro-2-methoxyphenyl)-N-(2-(((3S,4R)-4-hydroxytetrahydrofuran-3-yl)oxy)pyridin-4-yl)-4,5-dimethyl-5-(trifluoromethyl)tetrahydrofuran-2-carboxamide] is less than 10 nM; for `COc1ccc(NC(=O)[C@@H]2O[C@@](C)(C(F)(F)F)[C@@H](C)[C@H]2c2ccc(F)c(C(F)F)c2OC)cn1` (single isomer, unassigned) [Compound 167] it is 10 to 100 nM; for `C[C@@H](CO)COc1c([C@H]2[C@H](C(=O)Nc3ccc(C(N)=O)nc3)O[C@@](C)(C(F)(F)F)[C@H]2C)ccc(F)c1F` [Compound 616, 5-((2R,3S,4S,5R)-3-(3,4-difluoro-2-((S)-3-hydroxy-2-methylpropoxy)phenyl)-4,5-dimethyl-5-(trifluoromethyl)tetrahydrofuran-2-carboxamido)picolinamide] it is 100 to 1000 nM. For `C[C@H]1[C@@H](c2ccc(F)c(F)c2OCCOC(F)F)[C@H](C(=O)Nc2ccnc(CO)c2)O[C@@]1(C)C(F)(F)F` [Compound 641, (2R,3S,4S,5R)-3-(2-(2-(difluoromethoxy)ethoxy)-3,4-difluorophenyl)-N-(2-(hydroxymethyl)pyridin-4-yl)-4,5-dimethyl-5-(trifluoromethyl)tetrahydrofuran-2-carboxamide], the IC50 was less than 10 nM. Still for that read-out and setting: next, `COc1c([C@H]2[C@H](C(=O)Nc3cn(C[C@H](O)CO)nc3C)O[C@@](C)(C(F)(F)F)[C@H]2C)ccc(F)c1F` [Compound 332, (2R,3S,4S,5R)-3-(3,4-difluoro-2-methoxy-phenyl)-N-[1-[(2S)-2,3-dihydroxypropyl]-3-methyl-pyrazol-4-yl]-4,5-dimethyl-5-(trifluoromethyl)tetrahydrofuran-2-carboxamide]: less than 10 nM.

By IC50 is commonly meant the point on the concentration scale where inhibition reaches its midpoint.
